# According to ChEMBL document CHEMBL1131475, “Discovery of ritonavir, a potent inhibitor of HIV protease with high oral bioavailability and clinical efficacy” (J Med Chem, 1998):
# Legend:
# [1] = Oral bioavailability in rat; assay type: ADME, organism-based; conditions: in vivo
# in vivo [2] = conditions: rat, plasma, po
# in vivo [3] = conditions: rat, plasma, po, 10 mg/kg
# in vivo [4] = conditions: rat, plasma, po; remark: listed apart in the source
# in vivo [5] = conditions: rat, plasma, iv
Compound,bioavailability [1] [%],AUC (in vivo [2]) [ng·h/mL],Cmax (in vivo [3]) [nM],Tmax (in vivo [4]) [min],half-life (in vivo [5]) [min],F [1] [%]
Cc1ncc(COC(=O)N[C@@H](Cc2ccccc2)[C@@H](O)C[C@H](Cc2ccccc2)NC(=O)C(NC(=O)N(C)Cc2csc(C(C)C)n2)C(C)C)s1 (stereo partly drawn),23,910,650,72,26.4,–
CCc1nc(CN(C)C(=O)NC(C(=O)N[C@@H](Cc2ccccc2)[C@@H](O)C[C@H](Cc2ccccc2)NC(=O)OCc2cncs2)C(C)C)cs1 (stereo partly drawn),–,9370,5120,60,–,167
CC(C)c1nc(CN(C)C(=O)NC(C(=O)N[C@@H](Cc2ccccc2)C[C@H](O)[C@H](Cc2ccccc2)NC(=O)OCc2ccno2)C(C)C)co1 (stereo partly drawn),3.8,180,490,6,24,–
COc1ccc(CN(C)C(=O)NC(C(=O)N[C@@H](Cc2ccccc2)[C@@H](O)C[C@H](Cc2ccccc2)NC(=O)OCc2cccnc2)C(C)C)cn1 (stereo partly drawn),7.9,310,1830,6,19.2,–
Cc1cccc(COC(=O)NC(C(=O)N[C@@H](Cc2ccccc2)[C@@H](O)C[C@H](Cc2ccccc2)NC(=O)OCc2ccoc2)C(C)C)n1 (stereo partly drawn),0,–,–,–,13.2,–
CC(C)C(NC(=O)OCc1cncc(N)c1)C(=O)N[C@@H](Cc1ccccc1)[C@@H](O)C[C@H](Cc1ccccc1)NC(=O)OCc1cccnc1 (stereo partly drawn),0.5,20,200,6,43.2,–
CC(C)c1nc(CCC(=O)NC(C(=O)N[C@@H](Cc2ccccc2)[C@@H](O)C[C@H](Cc2ccccc2)NC(=O)OCc2cccnc2)C(C)C)cs1 (stereo partly drawn),9,410,320,6,54.6,–
COc1ccc(CN(C)C(=O)NC(C(=O)N[C@@H](Cc2ccccc2)[C@@H](O)C[C@H](Cc2ccccc2)NC(=O)OCc2cccnc2)C(C)C)nc1 (stereo partly drawn),17,820,2170,9,36,–
COc1cncc(COC(=O)NC(C(=O)N[C@@H](Cc2ccccc2)C[C@H](O)[C@H](Cc2ccccc2)NC(=O)OCc2cccnc2)C(C)C)c1 (stereo partly drawn),0.9,30,200,6,48,–
CCc1nc(CN(C)C(=O)NC(C(=O)N[C@@H](Cc2ccccc2)C[C@H](O)[C@H](Cc2ccccc2)NC(=O)OCc2cncs2)C(C)C)cs1 (stereo partly drawn),70,14200,6170,72,48,–
CC(C)c1csc(COC(=O)NC(C(=O)N[C@@H](Cc2ccccc2)C[C@H](O)[C@H](Cc2ccccc2)NC(=O)OCc2cncs2)C(C)C)n1 (stereo partly drawn),–,14300,5800,55.2,30,151
CC(NC(=O)OCc1csc(C(C)C)n1)C(=O)N[C@@H](Cc1ccccc1)C[C@H](O)[C@H](Cc1ccccc1)NC(=O)OCc1cncs1 (stereo partly drawn),19,1230,1090,24,31.8,–
CC(C)c1nc(CN(C)C(=O)NC(C(=O)N[C@@H](Cc2ccccc2)C[C@H](O)[C@H](Cc2ccccc2)NC(=O)OCc2ccno2)C(C)C)cs1 (stereo partly drawn),7.7,270,370,12,35.4,–
CC(C)C(NC(=O)N(C)Cc1ccccn1)C(=O)N[C@@H](Cc1ccccc1)[C@@H](O)C[C@H](Cc1ccccc1)NC(=O)OCc1cncnc1 (stereo partly drawn),13,870,2910,12,21,–
CC(C)c1nc(CN(C)C(=O)NCCC(=O)N[C@@H](Cc2ccccc2)C[C@H](O)[C@H](Cc2ccccc2)NC(=O)OCc2cncs2)cs1,7.1,190,630,6,57.6,–
CC(C)C(NC(=O)OCc1ccccn1)C(=O)N[C@@H](Cc1ccccc1)[C@@H](O)C[C@H](Cc1ccccc1)NC(=O)OCc1cncnc1 (stereo partly drawn),6.7,280,1180,12,30,–
Cc1ccc(CN(C)C(=O)NC(C(=O)N[C@@H](Cc2ccccc2)C[C@H](O)[C@H](Cc2ccccc2)NC(=O)OCc2cccnc2)C(C)C)cn1 (stereo partly drawn),2.1,60,310,12,21,–
Cc1cncc(CN(C)C(=O)NC(C(=O)N[C@@H](Cc2ccccc2)C[C@H](O)[C@H](Cc2ccccc2)NC(=O)OCc2cccnc2)C(C)C)c1 (stereo partly drawn),9.7,310,690,6,31.8,–
CC(C)C(NC(=O)N(C)Cc1csc(C2CC2)n1)C(=O)N[C@@H](Cc1ccccc1)[C@@H](O)C[C@H](Cc1ccccc1)NC(=O)OCc1cncs1 (stereo partly drawn),–,10700,3980,138,31.8,175
CC(C)c1nc(CN(C)C(=O)NC(C(=O)N[C@@H](Cc2ccccc2)C[C@H](O)[C@H](Cc2ccccc2)NC(=O)OCc2cccnc2)C(C)C)cs1 (stereo partly drawn),12,530,980,19.8,61.8,–

# The remaining lines, values ahead:
bioavailability [1] [%],AUC (in vivo [2]) [ng·h/mL],Cmax (in vivo [3]) [nM],Tmax (in vivo [4]) [min],half-life (in vivo [5]) [min],F [1] [%],Compound
5.6,140,200,15,34.2,–,CC(C)c1cccc(COC(=O)NC(C(=O)N[C@@H](Cc2ccccc2)C[C@H](O)[C@H](Cc2ccccc2)NC(=O)OCc2cccnc2)C(C)C)n1 (stereo partly drawn)
3.4,170,380,6,16.8,–,CC(C)c1nc(CCC(=O)NC(C(=O)N[C@@H](Cc2ccccc2)C[C@H](O)[C@H](Cc2ccccc2)NC(=O)OCc2cccnc2)C(C)C)cs1 (stereo partly drawn)
8.3,310,310,15,78.6,–,CC(C)c1cccc(COC(=O)NC(C(=O)N[C@@H](Cc2ccccc2)[C@@H](O)C[C@H](Cc2ccccc2)NC(=O)OCc2cccnc2)C(C)C)n1 (stereo partly drawn)
7.4,330,1300,9,45,–,CCc1nc(COC(=O)NC(C(=O)N[C@@H](Cc2ccccc2)C[C@H](O)[C@H](Cc2ccccc2)NC(=O)OCc2cccnc2)C(C)C)cs1 (stereo partly drawn)
8,470,590,12,23.4,–,CCc1cccc(COC(=O)NC(C(=O)N[C@@H](Cc2ccccc2)C[C@H](O)[C@H](Cc2ccccc2)NC(=O)OCc2cccnc2)C(C)C)n1 (stereo partly drawn)
1.3,50,290,6,15,–,COc1ccc(COC(=O)NC(C(=O)N[C@@H](Cc2ccccc2)C[C@H](O)[C@H](Cc2ccccc2)NC(=O)OCc2cccnc2)C(C)C)nc1 (stereo partly drawn)
2.4,100,500,12,12,–,CC(C)C(NC(=O)OCc1cnccn1)C(=O)N[C@@H](Cc1ccccc1)C[C@H](O)[C@H](Cc1ccccc1)NC(=O)OCc1cccnc1 (stereo partly drawn)
9.2,490,340,16.8,73.8,–,CCc1ncc(COC(=O)NC(C(=O)N[C@@H](Cc2ccccc2)[C@@H](O)C[C@H](Cc2ccccc2)NC(=O)OCc2cccnc2)C(C)C)s1 (stereo partly drawn)
8,490,1350,12,23.4,–,COCc1nc(CN(C)C(=O)NC(C(=O)N[C@@H](Cc2ccccc2)C[C@H](O)[C@H](Cc2ccccc2)NC(=O)OCc2cccnc2)C(C)C)cs1 (stereo partly drawn)
6.4,270,780,9,39,–,Cc1ccc(COC(=O)NC(C(=O)N[C@@H](Cc2ccccc2)C[C@H](O)[C@H](Cc2ccccc2)NC(=O)OCc2cccnc2)C(C)C)cn1 (stereo partly drawn)
11,420,380,9,22.2,–,COCc1ncc(COC(=O)NC(C(=O)N[C@@H](Cc2ccccc2)[C@@H](O)C[C@H](Cc2ccccc2)NC(=O)OCc2cccnc2)C(C)C)s1 (stereo partly drawn)
1.6,70,330,9,22.8,–,Cc1cncc(COC(=O)NC(C(=O)N[C@@H](Cc2ccccc2)C[C@H](O)[C@H](Cc2ccccc2)NC(=O)OCc2cccnc2)C(C)C)c1 (stereo partly drawn)
2.8,70,350,12,10.8,–,Cc1cnc(COC(=O)NC(C(=O)N[C@@H](Cc2ccccc2)[C@@H](O)C[C@H](Cc2ccccc2)NC(=O)OCc2cccnc2)C(C)C)cn1 (stereo partly drawn)
26,1980,4110,15,114,–,CC(C)C(NC(=O)OCc1ccccn1)C(=O)N[C@@H](Cc1ccccc1)[C@@H](O)C[C@H](Cc1ccccc1)NC(=O)OCc1cccnc1 (stereo partly drawn)
1.1,30,90,9,21,–,CC(C)C(NC(=O)OCc1csc(N2CCOCC2)n1)C(=O)N[C@@H](Cc1ccccc1)[C@@H](O)C[C@H](Cc1ccccc1)NC(=O)OCc1cccnc1 (stereo partly drawn)
10,480,2060,6,25.8,–,Cc1ncc(COC(=O)NC(C(=O)N[C@@H](Cc2ccccc2)C[C@H](O)[C@H](Cc2ccccc2)NC(=O)OCc2cccnc2)C(C)C)nc1C (stereo partly drawn)
0,–,–,–,19.2,–,CC(C)C(NC(=O)OCc1csc(N2CCOCC2)n1)C(=O)N[C@@H](Cc1ccccc1)C[C@H](O)[C@H](Cc1ccccc1)NC(=O)OCc1cccnc1 (stereo partly drawn)
9.5,420,990,6,29.4,–,CCc1nc(COC(=O)NC(C(=O)N[C@@H](Cc2ccccc2)[C@@H](O)C[C@H](Cc2ccccc2)NC(=O)OCc2cccnc2)C(C)C)cs1 (stereo partly drawn)
